Read-outs that look alike come from different tables or passages of the source.

One assay deals with human IDO (Homo sapiens, UniProt P14902). Description: Cell based IDO/kynurenine assay in IDO-293-T-Rex cells. Particulars: kynurenine production, 293T cells expressing human IDO, read-out: hIDO EC50. Put shortly:
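293-T-REx cells stably carrying doxycycline-inducible human or murine IDO were incubated with inhibitors in induction medium for 16 h at 37° C. Medium was TCA-treated at 60° C and reacted with p-dimethylaminobenzaldehyde. Kynurenine was quantified by absorbance at 480 nm.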

In a further assay the target is T1, murine IDO (Mus musculus, UniProt P28776).
T1 construct: expressed in transfected cells; host or cells: 293-T-REx cells (Invitrogen), doxycycline-inducible CMV-tet promoter
T1 sequence (P28776 whole entry): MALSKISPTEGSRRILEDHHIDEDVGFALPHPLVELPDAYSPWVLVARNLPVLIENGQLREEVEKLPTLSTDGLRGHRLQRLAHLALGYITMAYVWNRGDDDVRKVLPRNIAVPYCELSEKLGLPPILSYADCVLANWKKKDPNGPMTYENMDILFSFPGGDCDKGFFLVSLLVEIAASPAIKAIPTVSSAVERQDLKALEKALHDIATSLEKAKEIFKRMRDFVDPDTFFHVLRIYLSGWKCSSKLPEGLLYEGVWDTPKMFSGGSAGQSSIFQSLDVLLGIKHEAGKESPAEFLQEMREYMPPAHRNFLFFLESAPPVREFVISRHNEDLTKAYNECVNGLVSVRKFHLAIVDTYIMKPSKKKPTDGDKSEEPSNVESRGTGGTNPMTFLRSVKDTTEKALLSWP
Description: Cell based IDO/kynurenine assay in 293-T-Rex cells expressing murine IDO. Particulars: cells expressing murine IDO, read-out: mIDO EC50. The procedure: Transfected cells were selected in DBZ medium (DMEM, 10% FBS, 1× Penicillin+Streptomycin, 2 mM L-glutamine, 5 μg/mL blasticidin and 25 μg/ml Zeocin) at 37° C. with a 5% CO2 in air atmosphere. Individual clones were isolated by limiting dilution cloning from these populations.
The cells incubated in Neutral medium serve as negative control of the assay. The cells incubated in Induction medium and without inhibitor serve as the positive control of the assay. The incubation is carried out for 16 h at 37° C. in a cell culture incubator. 200 μL of medium are transferred to U-bottom polypropylene 96-well plates containing 25 μL of 30% TCA, incubated 30 minutes at 60° C. and centrifuged at 3400 g for 5 minutes. 150 μL of the clear supernatant is transferred to a polystyrene 96-well plate containing 50 μL of 4% (w/v) of p-dimethylaminobenzaldehyde in acetic acid, incubated for 10 min. Kynurenine concentration is determined by measuring the absorbance at 480 nm.

For assay [1], the target named is purified human IDO protein (Homo sapiens, UniProt P14902). Put plainly: Enzymatic IDO assay (kynurenine production, absorbance 480 nm). Particulars: recombinant human IDO, enzymatic activity.
Sequence of purified human IDO protein (P14902 whole entry P110S/E119G): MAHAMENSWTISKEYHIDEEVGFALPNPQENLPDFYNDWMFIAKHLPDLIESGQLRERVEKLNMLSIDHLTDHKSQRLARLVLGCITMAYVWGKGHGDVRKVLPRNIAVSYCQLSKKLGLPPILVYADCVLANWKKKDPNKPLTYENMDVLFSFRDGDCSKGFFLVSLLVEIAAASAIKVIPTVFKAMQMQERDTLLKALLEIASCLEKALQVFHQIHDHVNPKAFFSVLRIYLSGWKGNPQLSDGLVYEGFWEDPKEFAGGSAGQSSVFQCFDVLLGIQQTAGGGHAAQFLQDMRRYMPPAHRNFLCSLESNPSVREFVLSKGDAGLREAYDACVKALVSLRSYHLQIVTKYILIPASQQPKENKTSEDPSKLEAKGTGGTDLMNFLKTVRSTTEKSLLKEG

Sequence of human IDO (P14902 whole entry): as the sequence (P14902 whole entry P110S/E119G) above, with S110P, G119E counted along it

For orientation: EC50 means the concentration that produces a half-maximal response. By IC50 is commonly meant the concentration that gives 50% inhibition. Consider `NOCc1cc(Cl)ccc1-c1cncnc1` [compound 1923, O-(5-chloro-2-(pyrimidin-5-yl)benzyl)hydroxylamine], for which the 50% effective concentration (EC50) on human IDO (Table 15) and at murine IDO (Table 15) was < 10 µM each time. In addition, the IC50 in assay [1] (hIDO IC50, Table 15) is < 10 µM.

For the compound `NOC(c1ccccc1)c1ccccc1` [compound 1922, O-benzhydrylhydroxylamine], the EC50 at human IDO (Table 16) and on murine IDO (Table 16) was < 10 µM each time. In addition, the IC50 in assay [1] (hIDO IC50, Table 16) was < 10 µM.

For the compound `NOCc1ccccc1Br` [compound 1675, O-(2-bromobenzyl)hydroxylamine], the concentration giving a half-maximal response (EC50) on human IDO (Table 16) and at murine IDO (Table 16) was < 10 µM in each case. In addition, in assay [1] (hIDO IC50, Table 16), the concentration for half-maximal inhibition (IC50) was < 10 µM.

Take `NOCc1ccccc1-c1ccccc1` [compound 1827, O-(biphenyl-2-ylmethyl)hydroxylamine]: the concentration giving a half-maximal response (EC50) at human IDO (Table 15) is < 10 µM; at murine IDO (Table 15), 10 to 100 µM. In addition, the IC50 in assay [1] (hIDO IC50, Table 15) was < 10 µM.

With `NOCCCc1ccccc1` [compound 1693, O-(3-phenylpropyl)hydroxylamine], the EC50 was < 10 µM on human IDO (Table 16) and 10 to 100 µM at murine IDO (Table 16). In addition, in assay [1] (hIDO IC50, Table 16), the half-inhibitory concentration (IC50) fell in the range of 10 to 100 µM.

Take `COc1cccc(CON)c1` [compound 1682, O-(3-methoxybenzyl)hydroxylamine]: the concentration for a half-maximal effect (EC50) at human IDO (Table 16) and on murine IDO (Table 16) was < 10 µM throughout. Besides, the IC50 in assay [1] (hIDO IC50, Table 16) was < 10 µM.

In the case of `NOC1CCCc2ccccc21` (stereo not drawn) [compound 1895, O-(1,2,3,4-tetrahydronaphthalen-1-yl)hydroxylamine], the concentration for a half-maximal effect (EC50) at human IDO (Table 15) is < 10 µM; at murine IDO (Table 15) it was 10 to 100 µM. In addition, in assay [1] (hIDO IC50, Table 15), the concentration for half-maximal inhibition (IC50) was < 10 µM.

Take `NOC(CC1CCCCC1)c1ccccc1` (stereo not drawn) [compound 1925, O-(2-cyclohexyl-1-phenylethyl)hydroxylamine]: the values for the EC50 at human IDO (Table 15) and at murine IDO (Table 15) were < 10 µM and 10 to 100 µM, respectively. The concentration for half-maximal inhibition (IC50) in assay [1] (hIDO IC50, Table 15) was in the range of 10 to 100 µM.

For the compound `NOCc1cccc(Br)c1` [compound 1656, O-(3-bromobenzyl)hydroxylamine], the EC50 at human IDO (Table 16) and at murine IDO (Table 16) was < 10 µM throughout. Also, the 50% inhibitory concentration (IC50) in assay [1] (hIDO IC50, Table 16) is < 10 µM.

As to `NOCc1ccncc1` [compound 1737, O-(pyridin-4-ylmethyl)hydroxylamine], the EC50 at human IDO (Table 15) and at murine IDO (Table 15) was < 10 µM throughout. The IC50 in assay [1] (hIDO IC50, Table 15) was 10 to 100 µM.

For `NOCc1ccc(CON)cc1` [compound 1492, O,O′-(1,4-phenylenebis(methylene))bis(hydroxylamine)], the concentration for a half-maximal effect (EC50) at human IDO (Table 16) was < 10 µM; at murine IDO (Table 16), 10 to 100 µM. For the same compound, the half-inhibitory concentration (IC50) in assay [1] (hIDO IC50, Table 16) lay within 10 to 100 µM.

Take `NOCc1ccccc1C(F)(F)F` [compound 1677, O-(2-(trifluoromethyl)benzyl)hydroxylamine]: the results for the EC50 at human IDO (Table 16) and on murine IDO (Table 16) were < 10 µM and 10 to 100 µM, respectively. Moreover, the IC50 in assay [1] (hIDO IC50, Table 16) was < 10 µM.

`COc1ccccc1CON` [compound 1678, O-(2-methoxybenzyl)hydroxylamine]: the figures for the EC50 at human IDO (Table 16) and on murine IDO (Table 16) were < 10 µM and 10 to 100 µM, respectively. In assay [1] (hIDO IC50, Table 16), the concentration for half-maximal inhibition (IC50) fell in the range of 10 to 100 µM.

On to `NOCc1nc2ccccc2s1` [compound 1749, O-(benzo[d]thiazol-2-ylmethyl)hydroxylamine], for which the 50% effective concentration (EC50) at human IDO (Table 15) and at murine IDO (Table 15) was < 10 µM in each case. The IC50 in assay [1] (hIDO IC50, Table 15) is < 10 µM.

For the compound `NOCc1cccc(-c2ccncc2)c1` [compound 1888, O-(3-(pyridin-4-yl)benzyl)hydroxylamine], the values for the 50% effective concentration (EC50) on human IDO (Table 15) and on murine IDO (Table 15) were < 10 µM and 100 to 1000 µM, respectively. Further, the IC50 in assay [1] (hIDO IC50, Table 15) was in the range of 10 to 100 µM.

On to `NOCc1cccc(NCc2ccccc2)c1` [compound 1828, 3-(aminooxymethyl)-N-benzylaniline], for which the 50% effective concentration (EC50) is 10 to 100 µM at human IDO (Table 15) and 100 to 1000 µM at murine IDO (Table 15). Further, the half-maximal inhibitory concentration (IC50) in assay [1] (hIDO IC50, Table 15) fell in the range of 100 to 1000 µM.

For `NOCc1cc2ccccc2o1` [compound 1774, O-(benzofuran-2-ylmethyl)hydroxylamine], the EC50 on human IDO (Table 15) and at murine IDO (Table 15) was < 10 µM each time. In addition, the half-maximal inhibitory concentration (IC50) in assay [1] (hIDO IC50, Table 15) was < 10 µM.

As to `NOC(Cc1ccccc1)c1ccccc1` (stereo not drawn) [compound 1921, O-(1,2-diphenylethyl)hydroxylamine], the half-maximal effective concentration (EC50) on human IDO (Table 15) is < 10 µM; on murine IDO (Table 15), 10 to 100 µM. In assay [1] (hIDO IC50, Table 15), the concentration for half-maximal inhibition (IC50) is < 10 µM.

The values are drawn from patent US20130289083A1, “IDO Inhibitors” (priority 2007, published 2013).
